Measured values from patent US20140308733A1, “METHOD FOR INDUCING GERMINATION OF SPORE FORMING BACTERIUM” (CALPIS CO., LTD., priority 2011, published 2014).

Columns and labels:
[1] = system: Bacillus subtilis C-3102 (FERM BP-1096); assay: Influence of the concentration of germination inducer on turbidity change (Example 2); assay type: cell-based; settings: for turbidity (630 nm): 37° C., 150 rpm
Description: Next, 500 μL aliquots of bacterial suspension of Bacillus subtilis C-3102 (FERM BP-1096) used in Example 1 were mixed with 500 μL of ferulic acid, or vanillic acid solutions described above, and the mixtures were adjusted to ferulic acid (10 to 600 ppm), or vanillic acid (10 to 1800 ppm) concentrations set forth in Table 2. The concentrations of ferulic acid at the reaction initiation were 10, 100, 300, and 600 ppm, and the concentrations of vanillic acid at the reaction initiation were 10, 100, 300, 600, 1200, and 1800 ppm.
As same as Example 1, defining the time point of mixing the bacterial suspension with the solution of ferulic acid, or vanillic acid as the reaction initiation (0 min), and continuing shaking (150 rpm) at 37° C., the absorbance (630 nm) was measured at 10, 20, 30, 40, 50, 60, 90, 120, and 180 min after the reaction initiation.

[2] = system: C-3102 strain; assay: Long time culture of spore suspension with inducer, turbidity up to 24 hours (proliferation check, Example 4); assay type: cell-based, Bacillus subtilis; settings: 500 μL spore suspension + 500 μL of 600 ppm solution
Description: This Example is an experiment to examine whether proliferation is recognizable or not, when ferulic acid or vanillic acid is mixed with a spore suspension of the C-3102 strain and cultured for a long time period.
The C-3102 strain was cultured on a nutrient plate at 37° C. for 3 days, and thereafter bacterial cells were collected by a bacteria spreader and a spore suspension was prepared similarly as in Example 1 (OD 630=1.0). After mixing 500 μL of the C-3102 spore suspension with 500 μL of a 600 ppm-ferulic acid solution, or a 600 ppm-vanillic acid solution, change in the turbidity (630 nm) up to 24 hours was examined.

Compound: COc1cc(C(=O)O)ccc1O [Vanillic acid, vanillic acid]
- turbidity (630 nm) ([1]; vanillic acid 10 ppm, 0 min after reaction initiation): 0.590
- turbidity (630 nm) ([1]; vanillic acid 10 ppm, 10 min after reaction initiation): 0.558
- turbidity (630 nm) ([1]; vanillic acid 10 ppm, 20 min after reaction initiation): 0.548
- turbidity (630 nm) ([1]; vanillic acid 10 ppm, 30 min after reaction initiation): 0.539
- turbidity (630 nm) ([1]; vanillic acid 10 ppm, 40 min after reaction initiation): 0.527
- turbidity (630 nm) ([1]; vanillic acid 10 ppm, 50 min after reaction initiation): 0.514
- turbidity (630 nm) ([1]; vanillic acid 10 ppm, 60 min after reaction initiation): 0.497
- turbidity (630 nm) ([1]; vanillic acid 10 ppm, 90 min after reaction initiation): 0.472
- turbidity (630 nm) ([1]; vanillic acid 10 ppm, 120 min after reaction initiation): 0.437
- turbidity (630 nm) ([1]; vanillic acid 10 ppm, 180 min after reaction initiation): 0.338
- turbidity (630 nm) ([1]; vanillic acid 100 ppm, 0 min after reaction initiation): 0.584
- turbidity (630 nm) ([1]; vanillic acid 100 ppm, 10 min after reaction initiation): 0.557
- turbidity (630 nm) ([1]; vanillic acid 100 ppm, 20 min after reaction initiation): 0.553
- turbidity (630 nm) ([1]; vanillic acid 100 ppm, 30 min after reaction initiation): 0.537
- turbidity (630 nm) ([1]; vanillic acid 100 ppm, 40 min after reaction initiation): 0.526
- turbidity (630 nm) ([1]; vanillic acid 100 ppm, 50 min after reaction initiation): 0.501
- turbidity (630 nm) ([1]; vanillic acid 100 ppm, 60 min after reaction initiation): 0.491
- turbidity (630 nm) ([1]; vanillic acid 100 ppm, 90 min after reaction initiation): 0.470
- turbidity (630 nm) ([1]; vanillic acid 100 ppm, 120 min after reaction initiation): 0.433
- turbidity (630 nm) ([1]; vanillic acid 100 ppm, 180 min after reaction initiation): 0.315
- turbidity (630 nm) ([1]; vanillic acid 300 ppm, 0 min after reaction initiation): 0.572
- turbidity (630 nm) ([1]; vanillic acid 300 ppm, 10 min after reaction initiation): 0.555
- turbidity (630 nm) ([1]; vanillic acid 300 ppm, 20 min after reaction initiation): 0.543
- turbidity (630 nm) ([1]; vanillic acid 300 ppm, 30 min after reaction initiation): 0.538
- turbidity (630 nm) ([1]; vanillic acid 300 ppm, 40 min after reaction initiation): 0.526
- turbidity (630 nm) ([1]; vanillic acid 300 ppm, 50 min after reaction initiation): 0.507
- turbidity (630 nm) ([1]; vanillic acid 300 ppm, 60 min after reaction initiation): 0.501
- turbidity (630 nm) ([1]; vanillic acid 300 ppm, 90 min after reaction initiation): 0.452
- turbidity (630 nm) ([1]; vanillic acid 300 ppm, 120 min after reaction initiation): 0.381
- turbidity (630 nm) ([1]; vanillic acid 300 ppm, 180 min after reaction initiation): 0.235
- turbidity (630 nm) ([1]; vanillic acid 600 ppm, 0 min after reaction initiation): 0.566
- turbidity (630 nm) ([1]; vanillic acid 600 ppm, 10 min after reaction initiation): 0.568
- turbidity (630 nm) ([1]; vanillic acid 600 ppm, 20 min after reaction initiation): 0.561
- turbidity (630 nm) ([1]; vanillic acid 600 ppm, 30 min after reaction initiation): 0.540
- turbidity (630 nm) ([1]; vanillic acid 600 ppm, 40 min after reaction initiation): 0.512
- turbidity (630 nm) ([1]; vanillic acid 600 ppm, 50 min after reaction initiation): 0.499
- turbidity (630 nm) ([1]; vanillic acid 600 ppm, 60 min after reaction initiation): 0.488
- turbidity (630 nm) ([1]; vanillic acid 600 ppm, 90 min after reaction initiation): 0.447
- turbidity (630 nm) ([1]; vanillic acid 600 ppm, 120 min after reaction initiation): 0.390
- turbidity (630 nm) ([1]; vanillic acid 600 ppm, 180 min after reaction initiation): 0.262
- turbidity (630 nm) ([1]; vanillic acid 1200 ppm, 0 min after reaction initiation): 0.567
- turbidity (630 nm) ([1]; vanillic acid 1200 ppm, 10 min after reaction initiation): 0.559
- turbidity (630 nm) ([1]; vanillic acid 1200 ppm, 20 min after reaction initiation): 0.551
- turbidity (630 nm) ([1]; vanillic acid 1200 ppm, 30 min after reaction initiation): 0.548
- turbidity (630 nm) ([1]; vanillic acid 1200 ppm, 40 min after reaction initiation): 0.520
- turbidity (630 nm) ([1]; vanillic acid 1200 ppm, 50 min after reaction initiation): 0.509
- turbidity (630 nm) ([1]; vanillic acid 1200 ppm, 60 min after reaction initiation): 0.496
- turbidity (630 nm) ([1]; vanillic acid 1200 ppm, 90 min after reaction initiation): 0.474
- turbidity (630 nm) ([1]; vanillic acid 1200 ppm, 120 min after reaction initiation): 0.456
- turbidity (630 nm) ([1]; vanillic acid 1200 ppm, 180 min after reaction initiation): 0.419
- turbidity (630 nm) ([1]; vanillic acid 1800 ppm, 0 min after reaction initiation): 0.579
- turbidity (630 nm) ([1]; vanillic acid 1800 ppm, 10 min after reaction initiation): 0.562
- turbidity (630 nm) ([1]; vanillic acid 1800 ppm, 20 min after reaction initiation): 0.549
- turbidity (630 nm) ([1]; vanillic acid 1800 ppm, 30 min after reaction initiation): 0.538
- turbidity (630 nm) ([1]; vanillic acid 1800 ppm, 40 min after reaction initiation): 0.519
- turbidity (630 nm) ([1]; vanillic acid 1800 ppm, 50 min after reaction initiation): 0.510
- turbidity (630 nm) ([1]; vanillic acid 1800 ppm, 60 min after reaction initiation): 0.498
- turbidity (630 nm) ([1]; vanillic acid 1800 ppm, 90 min after reaction initiation): 0.472
- turbidity (630 nm) ([1]; vanillic acid 1800 ppm, 120 min after reaction initiation): 0.453
- turbidity (630 nm) ([1]; vanillic acid 1800 ppm, 180 min after reaction initiation): 0.420
- germination induction versus concentration ([1]; vanillic acid of 10 to 1800 ppm): germination was inducted at any concentration to the same extent
- turbidity (630 nm) ([2]; reaction time 0 hr): 0.575
- turbidity (630 nm) ([2]; reaction time 0.5 hr): 0.540
- turbidity (630 nm) ([2]; reaction time 1 hr): 0.481
- turbidity (630 nm) ([2]; reaction time 1.5 hr): 0.426
- turbidity (630 nm) ([2]; reaction time 2 hr): 0.380
- turbidity (630 nm) ([2]; reaction time 3 hr): 0.316
- turbidity (630 nm) ([2]; reaction time 24 hr): 0.060
